# Test results reported in EPA's CvTdb concentration-time database.
# Tested on: Rat
# Test: concentration in plasma after dosing
smiles,measurement,setting,value
CCC1(c2ccccc2)C(=O)NCNC1=O [Primidone],concentration in plasma,"0.25 h, dosed: Primidone, 30 mg/kg, oral, Female, F344",18100 ng/mL
same,concentration in plasma,"0.25 h, dosed: Primidone, 30 mg/kg, oral, Male, F344",8900 ng/mL
same,concentration in plasma,"0.25 h, dosed: Primidone, 80 mg/kg, oral, Female, F344",16900 ng/mL
same,concentration in plasma,"0.25 h, dosed: Primidone, 80 mg/kg, oral, Female, Harlan Sprague-Dawley",9900 ng/mL
same,concentration in plasma,"0.5 h, dosed: Primidone, 80 mg/kg, oral, Female, F344",40000 ng/mL
same,concentration in plasma,"0.5 h, dosed: Primidone, 80 mg/kg, oral, Female, Harlan Sprague-Dawley",27200 ng/mL
same,concentration in plasma,"0.5 h, dosed: Primidone, 130 mg/kg, oral, Female, F344",19600 ng/mL
same,concentration in plasma,"0.5 h, dosed: Primidone, 130 mg/kg, oral, Male, Harlan Sprague Dawley",55100 ng/mL
same,concentration in plasma,"1.5 h, dosed: Primidone, 30 mg/kg, oral, Female, F344",23900 ng/mL
same,concentration in plasma,"1.5 h, dosed: Primidone, 30 mg/kg, oral, Male, F344",10000 ng/mL
same,concentration in plasma,"1.5 h, dosed: Primidone, 80 mg/kg, oral, Female, F344",48800 ng/mL
same,concentration in plasma,"1.5 h, dosed: Primidone, 80 mg/kg, oral, Male, F344",34700 ng/mL
same,concentration in plasma,"1.5 h, dosed: Primidone, 130 mg/kg, oral, Female, F344",78900 ng/mL
same,concentration in plasma,"1.5 h, dosed: Primidone, 130 mg/kg, oral, Female, Harlan Sprague-Dawley",51900 ng/mL
same,concentration in plasma,"1.5 h, dosed: Primidone, 130 mg/kg, oral, Male, F344",51500 ng/mL
same,concentration in plasma,"3 h, dosed: Primidone, 30 mg/kg, oral, Female, F344",24900 ng/mL
same,concentration in plasma,"3 h, dosed: Primidone, 30 mg/kg, oral, Male, F344",6700 ng/mL
same,concentration in plasma,"3 h, dosed: Primidone, 80 mg/kg, oral, Female, F344",75900 ng/mL
same,concentration in plasma,"3 h, dosed: Primidone, 80 mg/kg, oral, Male, F344",37100 ng/mL
same,concentration in plasma,"3 h, dosed: Primidone, 130 mg/kg, oral, Female, F344",53300 ng/mL
same,concentration in plasma,"3 h, dosed: Primidone, 130 mg/kg, oral, Male, Harlan Sprague Dawley",100000 ng/mL
same,concentration in plasma,"6 h, dosed: Primidone, 30 mg/kg, oral, Female, F344",11900 ng/mL
same,concentration in plasma,"6 h, dosed: Primidone, 30 mg/kg, oral, Male, F344",500 ng/mL
same,concentration in plasma,"6 h, dosed: Primidone, 80 mg/kg, oral, Female, F344",36400 ng/mL
same,concentration in plasma,"6 h, dosed: Primidone, 80 mg/kg, oral, Male, F344",14000 ng/mL
same,concentration in plasma,"6 h, dosed: Primidone, 130 mg/kg, oral, Female, F344",24600 ng/mL
same,concentration in plasma,"6 h, dosed: Primidone, 130 mg/kg, oral, Male, F344",22800 ng/mL
same,concentration in plasma,"9 h, dosed: Primidone, 30 mg/kg, oral, Female, F344",5700 ng/mL
same,concentration in plasma,"9 h, dosed: Primidone, 80 mg/kg, oral, Female, F344",23400 ng/mL
same,concentration in plasma,"9 h, dosed: Primidone, 80 mg/kg, oral, Male, F344",4000 ng/mL
same,concentration in plasma,"9 h, dosed: Primidone, 130 mg/kg, oral, Female, F344",53800 ng/mL
same,concentration in plasma,"9 h, dosed: Primidone, 130 mg/kg, oral, Male, F344",9000 ng/mL
same,concentration in plasma,"12 h, dosed: Primidone, 30 mg/kg, oral, Female, F344",2200 ng/mL
same,concentration in plasma,"12 h, dosed: Primidone, 80 mg/kg, oral, Female, F344",12600 ng/mL
same,concentration in plasma,"12 h, dosed: Primidone, 80 mg/kg, oral, Female, Harlan Sprague-Dawley",1500 ng/mL
same,concentration in plasma,"12 h, dosed: Primidone, 130 mg/kg, oral, Female, F344",5500 ng/mL
same,concentration in plasma,"12 h, dosed: Primidone, 130 mg/kg, oral, Male, Harlan Sprague Dawley",22300 ng/mL
same,concentration in plasma,"18 h, dosed: Primidone, 30 mg/kg, oral, Female, F344",500 ng/mL
same,concentration in plasma,"18 h, dosed: Primidone, 80 mg/kg, oral, Female, F344",3600 ng/mL
same,concentration in plasma,"22 h, dosed: Primidone, 80 mg/kg, oral, Female, F344",400 ng/mL
same,concentration in plasma,"22 h, dosed: Primidone, 130 mg/kg, oral, Female, F344",100 ng/mL
c1ccncc1 [Pyridine],concentration in plasma,"2 min, dosed: Pyridine, 10 mg/kg, iv, Male, F344",4390 ng/mL
same,concentration in plasma,"2 min, dosed: Pyridine, 10 mg/kg, oral, Male, F344",716 ng/mL
same,concentration in plasma,"0.05 h, dosed: Pyridine, 5 mg/kg, iv, Male, F344",5520 ng/mL
same,concentration in plasma,"5 min, dosed: Pyridine, 5 mg/kg, oral, Male, F344",1700 ng/mL
same,concentration in plasma,"5 min, dosed: Pyridine, 10 mg/kg, iv, Male, F344",2280 ng/mL
same,concentration in plasma,"5 min, dosed: Pyridine, 25 mg/kg, oral, Male, F344",5570 ng/mL
same,concentration in plasma,"10 min, dosed: Pyridine, 10 mg/kg, oral, Male, F344",3820 ng/mL
same,concentration in plasma,"0.25 h, dosed: Pyridine, 5 mg/kg, iv, Male, F344",2430 ng/mL
same,concentration in plasma,"0.25 h, dosed: Pyridine, 10 mg/kg, iv, Male, F344",4140 ng/mL
same,concentration in plasma,"20 min, dosed: Pyridine, 10 mg/kg, iv, Male, F344",3160 ng/mL
same,concentration in plasma,"20 min, dosed: Pyridine, 10 mg/kg, oral, Female, Harlan Sprague-Dawley",2720 ng/mL
same,concentration in plasma,"0.5 h, dosed: Pyridine, 5 mg/kg, iv, Male, F344",3550 ng/mL
same,concentration in plasma,"0.5 h, dosed: Pyridine, 5 mg/kg, oral, Male, F344",2630 ng/mL
same,concentration in plasma,"0.5 h, dosed: Pyridine, 25 mg/kg, oral, Male, F344",16500 ng/mL
same,concentration in plasma,"40 min, dosed: Pyridine, 10 mg/kg, oral, Female, Harlan Sprague-Dawley",2560 ng/mL
same,concentration in plasma,"50 min, dosed: Pyridine, 10 mg/kg, iv, Male, F344",3220 ng/mL
same,concentration in plasma,"1 h, dosed: Pyridine, 5 mg/kg, oral, Male, F344",2900 ng/mL
same,concentration in plasma,"1 h, dosed: Pyridine, 25 mg/kg, oral, Female, Harlan Sprague-Dawley",18800 ng/mL
same,concentration in plasma,"2 h, dosed: Pyridine, 5 mg/kg, iv, Male, F344",2390 ng/mL
same,concentration in plasma,"2 h, dosed: Pyridine, 5 mg/kg, oral, Male, F344",2920 ng/mL
same,concentration in plasma,"2 h, dosed: Pyridine, 10 mg/kg, iv, Male, F344",185 ng/mL
same,concentration in plasma,"2 h, dosed: Pyridine, 25 mg/kg, oral, Female, Harlan Sprague-Dawley",15700 ng/mL
same,concentration in plasma,"4 h, dosed: Pyridine, 5 mg/kg, iv, Male, F344",2090 ng/mL
same,concentration in plasma,"4 h, dosed: Pyridine, 5 mg/kg, oral, Male, F344",2610 ng/mL
same,concentration in plasma,"4 h, dosed: Pyridine, 25 mg/kg, oral, Male, F344",15000 ng/mL
same,concentration in plasma,"6 h, dosed: Pyridine, 5 mg/kg, iv, Male, F344",1640 ng/mL
same,concentration in plasma,"6 h, dosed: Pyridine, 5 mg/kg, oral, Male, F344",1550 ng/mL
same,concentration in plasma,"6 h, dosed: Pyridine, 25 mg/kg, oral, Male, F344",15300 ng/mL
same,concentration in plasma,"8 h, dosed: Pyridine, 5 mg/kg, iv, Male, F344",1620 ng/mL
same,concentration in plasma,"8 h, dosed: Pyridine, 5 mg/kg, oral, Male, F344",1070 ng/mL
same,concentration in plasma,"8 h, dosed: Pyridine, 25 mg/kg, oral, Female, Harlan Sprague-Dawley",15400 ng/mL
same,concentration in plasma,"9 h, dosed: Pyridine, 5 mg/kg, oral, Male, F344",1280 ng/mL
same,concentration in plasma,"11 h, dosed: Pyridine, 5 mg/kg, oral, Male, F344",659 ng/mL
same,concentration in plasma,"14 h, dosed: Pyridine, 25 mg/kg, oral, Female, Harlan Sprague-Dawley",10000 ng/mL
same,concentration in plasma,"20 h, dosed: Pyridine, 25 mg/kg, oral, Male, F344",2910 ng/mL
same,concentration in plasma,"24 h, dosed: Pyridine, 25 mg/kg, oral, Male, F344",1640 ng/mL
same,concentration in plasma,"40 h, dosed: Pyridine, 100 mg/kg, oral, Male, F344",11600 ng/mL
